The assay has as its target TYK2 (Homo sapiens, UniProt P29597). Kind of assay: TYK2 protein degradation in NOMO-1 cells by immunoblotting. The class given is cell-based. Also noted: endogenous in cells. The conditions noted are these: NOMO-1 cells. On the procedure: NOMO-1 cells were treated with CPD-155, CPD-157, and CPD-158 at 0.1, 1, 10, 100 and 1000 nM concentrations for 16 hours. […] Data shown that CPD-155, CPD-157, and CPD-158 are very potent at the reduction protein levels of TYK2.
MOLT-4 or NOMO-1 cells were cultured at 37° C. with 5% CO2 in RPMI 1640 Medium supplemented with 10% fetal bovine serum. Cells were authenticated using the short tandem repeat (STR) assays. Mycoplasma test results were negative.
Cultured cells were washed with cold PBS once and lysed in cold RIPA buffer supplemented with protease inhibitors and phosphatase inhibitors (Beyotime Biotechnology). The solutions were then incubated at 4° C. for 30 minutes with gentle agitation to fully lyse cells. Cell lysates were centrifuged at 13,000 rpm for 10 minutes at 4° C. and pellets were discarded. Total protein concentrations in the lysates were determined by BCA assays (Beyotime Biotechnology). Cell lysates were mixed with Laemmli loading buffer to 1× and heated at 99° C. for 5 min. Proteins were resolved on SDS-PAGE and visualized by chemiluminescence. Images were taken by a ChemiDoc MP Imaging system (Bio-Rad). Protein bands were quantitated using the accompanied software provided by Bio-Rad.

From US20240059671A1, “TYROSINE KINASE 2 (TYK2) DEGRADATION COMPOUNDS AND METHODS OF USE” (CULLGEN (SHANGHAI), INC., priority 2020, published 2024) come the findings set out here.

TYK2, sequence (P29597 whole entry): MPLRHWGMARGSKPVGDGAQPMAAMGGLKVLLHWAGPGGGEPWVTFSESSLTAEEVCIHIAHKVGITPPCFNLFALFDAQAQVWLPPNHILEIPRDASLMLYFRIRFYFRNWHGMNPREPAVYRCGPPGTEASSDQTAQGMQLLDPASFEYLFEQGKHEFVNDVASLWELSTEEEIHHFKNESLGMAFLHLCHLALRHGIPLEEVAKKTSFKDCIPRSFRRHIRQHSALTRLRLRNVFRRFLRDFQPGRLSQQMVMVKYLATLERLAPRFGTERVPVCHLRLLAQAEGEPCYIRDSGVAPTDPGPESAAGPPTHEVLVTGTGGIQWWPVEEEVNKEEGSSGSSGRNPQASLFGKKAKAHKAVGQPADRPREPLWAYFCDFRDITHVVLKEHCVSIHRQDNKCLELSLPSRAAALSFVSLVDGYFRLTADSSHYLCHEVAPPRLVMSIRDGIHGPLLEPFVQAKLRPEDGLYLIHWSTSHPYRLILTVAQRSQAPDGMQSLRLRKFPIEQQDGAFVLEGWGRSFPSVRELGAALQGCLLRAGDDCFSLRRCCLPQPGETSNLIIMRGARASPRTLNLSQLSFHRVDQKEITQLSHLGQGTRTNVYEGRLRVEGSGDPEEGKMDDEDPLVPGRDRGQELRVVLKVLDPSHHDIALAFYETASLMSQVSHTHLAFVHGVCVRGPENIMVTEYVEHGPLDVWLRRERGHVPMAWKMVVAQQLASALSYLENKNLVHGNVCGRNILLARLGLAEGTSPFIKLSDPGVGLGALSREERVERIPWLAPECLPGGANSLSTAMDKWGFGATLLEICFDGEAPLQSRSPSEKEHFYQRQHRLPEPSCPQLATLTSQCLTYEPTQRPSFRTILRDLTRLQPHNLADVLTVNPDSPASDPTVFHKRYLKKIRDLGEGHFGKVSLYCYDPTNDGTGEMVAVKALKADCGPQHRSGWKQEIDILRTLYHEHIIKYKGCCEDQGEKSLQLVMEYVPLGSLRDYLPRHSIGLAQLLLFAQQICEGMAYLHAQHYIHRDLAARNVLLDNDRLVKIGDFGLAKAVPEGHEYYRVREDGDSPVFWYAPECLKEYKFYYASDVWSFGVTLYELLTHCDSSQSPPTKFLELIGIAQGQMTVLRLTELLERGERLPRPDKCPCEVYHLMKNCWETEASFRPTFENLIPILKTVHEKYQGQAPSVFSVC

As for `CNC(=O)c1nnc(Nc2ccc(N3CCN(C(=O)CCCCCCC(=O)N[C@H](C(=O)N4C[C@H](O)C[C@H]4C(=O)N[C@@H](C)c4ccc(-c5scnc5C)cc4)C(C)(C)C)CC3)cn2)cc1Nc1cccc(-c2ncn(C)n2)c1OC` [CDP-112, 6-((5-(4-(8-(((S)-1-((2S,4R)-4-Hydroxy-2-(((S)-1-(4-(4-methylthiazol-5-yl)phenyl)ethyl)carbamoyl)pyrrolidin-1-yl)-3,3-dimethyl-1-oxobutan-2-yl)amino)-8-oxooctanoyl)piperazin-1-yl)pyridin-2-yl)amino)-4-((2-methoxy-3-(1-methyl-1H-1,2,4-triazol-3-yl)phenyl)amino)-N-methylpyridazine-3-carboxamide], the “TYK2 Degradation (NOMO-1, 10 nM)” value is reported as “A (A: ≥60% TYK2 degradation)” and the “TYK2 Degradation (NOMO-1, 100 nM)” value is “A (A: ≥60% TYK2 degradation)”.

As to `CNC(=O)c1cnc(Nc2ccc(N3CCN(C(=O)CCCCCCC(=O)N[C@H](C(=O)N4C[C@H](O)C[C@H]4C(=O)N[C@@H](C)c4ccc(-c5scnc5C)cc4)C(C)(C)C)CC3)cn2)cc1Nc1ccccc1OC` [CDD-170, 6-((5-(4-(8-(((S)-1-((2S,4R)-4-hydroxy-2-(((S)-1-(4-(4-methylthiazol-5-yl)phenyl)ethyl)carbamoyl)pyrrolidin-1-yl)-3,3-dimethyl-1-oxobutan-2-yl)amino)-8-oxooctanoyl)piperazin-1-yl)pyridin-2-yl)amino)-4-((2-methoxyphenyl)amino)-N-methylnicotinamide], the “TYK2 Degradation (NOMO-1, 10 nM)” value was “B (B: <60% TYK2 degradation, and >20% TYK2 degradation)”; the “TYK2 Degradation (NOMO-1, 100 nM)” value is reported as “A (A: ≥60% TYK2 degradation)”.

For the molecule `CNC(=O)c1nnc(Nc2ccc(C(=O)NCC(=O)N[C@H](C(=O)N3C[C@H](O)C[C@H]3C(=O)N[C@@H](C)c3ccc(-c4scnc4C)cc3)C(C)(C)C)cn2)cc1Nc1cccc(-c2ncn(C)n2)c1OC` [CPD-137, 6-((5-((2-(((S)-1-((2S,4R)-4-Hydroxy-2-(((S)-1-(4-(4-methylthiazol-5-yl)phenyl)ethyl)carbamoyl)pyrrolidin-1-yl)-3,3-dimethyl-1-oxobutan-2-yl)amino)-2-oxoethyl)carbamoyl)pyridin-2-yl)amino)-4-((2-methoxy-3-(1-methyl-1H-1,2,4-triazol-3-yl)phenyl)amino)-N-methylpyridazine-3-carboxamide], the “TYK2 Degradation (NOMO-1, 10 nM)” value is “C (C: ≤20% TYK2 degradation)” and the “TYK2 Degradation (NOMO-1, 100 nM)” value is listed as “A (A: ≥60% TYK2 degradation)”.

`CNC(=O)c1nnc(Nc2ccc(N3CCN(C4CCN(C(=O)CCCCC(=O)N[C@H](C(=O)N5C[C@H](O)C[C@H]5C(=O)N[C@@H](C)c5ccc(-c6scnc6C)cc5)C(C)(C)C)CC4)CC3)cn2)cc1Nc1cccc(-c2ncn(C)n2)c1OC` [CPD-147, 6-((5-(4-(1-(6-(((S)-1-((2S,4R)-4-Hydroxy-2-(((S)-1-(4-(4-methylthiazol-5-yl)phenyl)ethyl)carbamoyl)pyrrolidin-1-yl)-3,3-dimethyl-1-oxobutan-2-yl)amino)-6-oxohexanoyl)piperidin-4-yl)piperazin-1-yl)pyridin-2-yl)amino)-4-((2-methoxy-3-(1-methyl-1H-1,2,4-triazol-3-yl)phenyl)amino)-N-methylpyridazine-3-carboxamide]: the “TYK2 Degradation (NOMO-1, 10 nM)” value was “B (B: <60% TYK2 degradation, and >20% TYK2 degradation)”; the “TYK2 Degradation (NOMO-1, 100 nM)” value is listed as “A (A: ≥60% TYK2 degradation)”.

Take `CNC(=O)c1nnc(Nc2ccc(C#CC3CCN(C(=O)CCCCCC(=O)N[C@H](C(=O)N4C[C@H](O)C[C@H]4C(=O)N[C@@H](C)c4ccc(-c5scnc5C)cc4)C(C)(C)C)CC3)cn2)cc1Nc1cccc(-c2ncn(C)n2)c1OC` [CPD-118, 6-((5-((1-(7-(((S)-1-((2S,4R)-4-Hydroxy-2-(((S)-1-(4-(4-methylthiazol-5-yl)phenyl)ethyl)carbamoyl)pyrrolidin-1-yl)-3,3-dimethyl-1-oxobutan-2-yl)amino)-7-oxoheptanoyl)piperidin-4-yl)ethynyl)pyridin-2-yl)amino)-4-((2-methoxy-3-(1-methyl-1H-1,2,4-triazol-3-yl)phenyl)amino)-N-methylpyridazine-3-carboxamide]: the “TYK2 Degradation (NOMO-1, 10 nM)” value was “B (B: <60% TYK2 degradation, and >20% TYK2 degradation)”; the “TYK2 Degradation (NOMO-1, 100 nM)” value was “A (A: ≥60% TYK2 degradation)”.

Regarding `CNC(=O)c1nnc(Nc2ccc(C(=O)NCCCCNc3cccc4c3C(=O)N(C3CCC(=O)NC3=O)C4=O)cn2)cc1Nc1cccc(-c2ncn(C)n2)c1OC` (stereo not drawn) [CPD-154, 6-((5-((4-((2-(2,6-Dioxopiperidin-3-yl)-1,3-dioxoisoindolin-4-yl)amino)butyl)carbamoyl)pyridin-2-yl)amino)-4-((2-methoxy-3-(1-methyl-1H-1,2,4-triazol-3-yl)phenyl)amino)-N-methylpyridazine-3-carboxamide], the “TYK2 Degradation (NOMO-1, 100 nM)” value was “B (B: <60% TYK2 degradation, and >20% TYK2 degradation)”.

For the molecule `CNC(=O)c1nnc(Nc2ccc(C(=O)NCCCCCCNc3cccc4c3C(=O)N(C3CCC(=O)NC3=O)C4=O)cn2)cc1Nc1cccc(-c2ncn(C)n2)c1OC` (stereo not drawn) [CPD-156, 6-((5-((6-((2-(2,6-Dioxopiperidin-3-yl)-1,3-dioxoisoindolin-4-yl)amino)hexyl)carbamoyl)pyridin-2-yl)amino)-4-((2-methoxy-3-(1-methyl-1H-1,2,4-triazol-3-yl)phenyl)amino)-N-methylpyridazine-3-carboxamide], the “TYK2 Degradation (NOMO-1, 100 nM)” value was “B (B: <60% TYK2 degradation, and >20% TYK2 degradation)”.

As for `CNC(=O)c1nnc(Nc2ccc(C#CC3CN(C(=O)CCCCCCC(=O)N[C@H](C(=O)N4C[C@H](O)C[C@H]4C(=O)N[C@@H](C)c4ccc(-c5scnc5C)cc4)C(C)(C)C)C3)cn2)cc1Nc1cccc(-c2ncn(C)n2)c1OC` [CPD-125, 6-((5-((1-(8-(((S)-1-((2S,4R)-4-hydroxy-2-(((S)-1-(4-(4-methylthiazol-5-yl)phenyl)ethyl)carbamoyl)pyrrolidin-1-yl)-3,3-dimethyl-1-oxobutan-2-yl)amino)-8-oxooctanoyl)azetidin-3-yl)ethynyl)pyridin-2-yl)amino)-4-((2-methoxy-3-(1-methyl-H-1,2,4-triazol-3-yl)phenyl)amino)-N-methylpyridazine-3-carboxamide], the “TYK2 Degradation (NOMO-1, 10 nM)” value is given as “A (A: ≥60% TYK2 degradation)” and the “TYK2 Degradation (NOMO-1, 100 nM)” value is given as “A (A: ≥60% TYK2 degradation)”.

For `CNC(=O)c1nnc(Nc2ccc(CNCCCCCCCC(=O)N[C@H](C(=O)N3C[C@H](O)C[C@H]3C(=O)N[C@@H](C)c3ccc(-c4scnc4C)cc3)C(C)(C)C)cn2)cc1Nc1cccc(-c2ncn(C)n2)c1OC` [CPD-162, 6-((5-(((8-(((S)-1-((2S,4R)-4-hydroxy-2-(((S)-1-(4-(4-methylthiazol-5-yl)phenyl)ethyl)carbamoyl)pyrrolidin-1-yl)-3,3-dimethyl-1-oxobutan-2-yl)amino)-8-oxooctyl)amino)methyl)pyridin-2-yl)amino)-4-((2-methoxy-3-(1-methyl-1H-1,2,4-triazol-3-yl)phenyl)amino)-N-methylpyridazine-3-carboxamide], the “TYK2 Degradation (NOMO-1, 10 nM)” value was “B (B: <60% TYK2 degradation, and >20% TYK2 degradation)”; the “TYK2 Degradation (NOMO-1, 100 nM)” value is on record as “A (A: ≥60% TYK2 degradation)”.

Turning to `CNC(=O)c1nnc(Nc2ccc(C#CC3CCN(C(=O)CCC(=O)N[C@H](C(=O)N4C[C@H](O)C[C@H]4C(=O)N[C@@H](C)c4ccc(-c5scnc5C)cc4)C(C)(C)C)CC3)cn2)cc1Nc1cccc(-c2ncn(C)n2)c1OC` [CPD-116, 6-((5-((1-(4-(((S)-1-((2S,4R)-4-Hydroxy-2-(((S)-1-(4-(4-methylthiazol-5-yl)phenyl)ethyl)carbamoyl)pyrrolidin-1-yl)-3,3-dimethyl-1-oxobutan-2-yl)amino)-4-oxobutanoyl)piperidin-4-yl)ethynyl)pyridin-2-yl)amino)-4-((2-methoxy-3-(1-methyl-1H-1,2,4-triazol-3-yl)phenyl)amino)-N-methylpyridazine-3-carboxamide], the “TYK2 Degradation (NOMO-1, 10 nM)” value is listed as “C (C: ≤20% TYK2 degradation)” and the “TYK2 Degradation (NOMO-1, 100 nM)” value was “A (A: ≥60% TYK2 degradation)”.

With `CNC(=O)c1nnc(Nc2ccc(C(=O)NC3CC(CC(=O)N[C@H](C(=O)N4C[C@H](O)C[C@H]4C(=O)N[C@@H](C)c4ccc(-c5scnc5C)cc4)C(C)(C)C)C3)cn2)cc1Nc1cccc(-c2ncn(C)n2)c1OC` (stereo partly drawn) [CPD-161, 6-((5-((3-(2-(((S)-1-((2S,4R)-4-hydroxy-2-(((S)-1-(4-(4-methylthiazol-5-yl)phenyl)ethyl)carbamoyl)pyrrolidin-1-yl)-3,3-dimethyl-1-oxobutan-2-yl)amino)-2-oxoethyl)cyclobutyl)carbamoyl)pyridin-2-yl)amino)-4-((2-methoxy-3-(1-methyl-1H-1,2,4-triazol-3-yl)phenyl)amino)-N-methylpyridazine-3-carboxamide], the “TYK2 Degradation (NOMO-1, 10 nM)” value was “C (C: ≤20% TYK2 degradation)” and the “TYK2 Degradation (NOMO-1, 100 nM)” value is given as “A (A: ≥60% TYK2 degradation)”.

On to `CNC(=O)c1nnc(Nc2ccc(N3CCN(C4CCN(C(=O)CCCCCCC(=O)N[C@H](C(=O)N5C[C@H](O)C[C@H]5C(=O)N[C@@H](C)c5ccc(-c6scnc6C)cc5)C(C)(C)C)CC4)CC3)cn2)cc1Nc1cccc(-c2ncn(C)n2)c1OC` [CPD-149, 6-((5-(4-(1-(8-(((S)-1-((2S,4R)-4-Hydroxy-2-(((S)-1-(4-(4-methylthiazol-5-yl)phenyl)ethyl)carbamoyl)pyrrolidin-1-yl)-3,3-dimethyl-1-oxobutan-2-yl)amino)-8-oxooctanoyl)piperidin-4-yl)piperazin-1-yl)pyridin-2-yl)amino)-4-((2-methoxy-3-(1-methyl-1H-1,2,4-triazol-3-yl)phenyl)amino)-N-methylpyridazine-3-carboxamide], for which the “TYK2 Degradation (NOMO-1, 100 nM)” value is “A (A: ≥60% TYK2 degradation)”.
